Laboratory results published in patent publication US10188605B2, “Nanoparticles and nanoparticle compositions” (priority 2010, dated 2019).
“And” between values parts separate entries of the source, which are not always exact repeats. Equal entries are not always repeated.

Legend:
[1] = versus camptothecin; cited from earlier work
[2] = in water at 20° C.; cited from earlier work
[3] = Critical micelle concentration of surfactant 1 (surface tension; pyrene I3/I1 fluorescence); type: physicochemical
Excerpt: Pyrene was used as a surrogate for a hydrophobic drug because of its environmentally sensitive fluorescence. […] The intensity ratio between the third (˜384 nm) and the first band (˜372 nm), in particular, is sensitive to changes in the environment. […] The CMC of the surfactant is about 1.4×10^−4 M according to surface tension measurement and 1.5×10^−4 M, according to FIG. 15.

[4] = Release of entrapped pyrene from SCMs by fluorescence (I3/I1 ratio); type: physicochemical; conditions: uncrosslinked reference
Excerpt: The intensity ratio between the third (˜384 nm) and the first band (˜372 nm), in particular, is sensitive to changes in the environment.

CC[C@@](O)(C(=O)[O-])c1cc2n(c(=O)c1CO)Cc1cc3ccccc3nc1-2.[Na+] [CAM-Na]
biological activity relative to the parent drug [1]: one-tenth

CCCCCCCCCCCC[N+](C)(C)C.[Br-] [Dodecyltrimethyl ammonium bromide]
micellar aggregation number [2]: 55

C#CC[N+](CC#C)(CC#C)Cc1ccc(OCCCCCCCCCCCC)cc1.[Br-] [Compound 1, 4-(Dodecyloxy)benzyltripropargylammonium bromide]
critical micelle concentration ([3]; in water): 150 µM and 140 µM | CMC according to pyrene I3/I1 ratio (FIG. 15) ([3]; pyrene fluorescence): 150 µM | CMC according to surface tension measurement ([3]; surface tension): about 1.4×10^−4 M | pyrene I3/I1 in uncrosslinked surfactant below the CMC [4]: 0.70
